Assay results published in PubChem BioAssay (NCI).
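All cell lines were grown in 96-well plates and treated with compound for 48 hours. GI50: concentration for 50% inhibition of growth. TGI denotes the concentration required for complete inhibition of growth.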

Tests used:
Assay in all cases: NCI-60 cell line screen, 48 h
786-0 renal = tested on: 786-0 renal
A498 renal = tested on: A498 renal
A549 NSCLC = tested on: A549 NSCLC
ACHN renal = tested on: ACHN renal
BT-549 breast = tested on: BT-549 breast
CAKI-1 renal = tested on: CAKI-1 renal
CCRF-CEM leukemia = tested on: CCRF-CEM leukemia
COLO 205 colon = tested on: COLO 205 colon
DU-145 prostate = tested on: DU-145 prostate
EKVX NSCLC = tested on: EKVX NSCLC
HCC-2998 colon = tested on: HCC-2998 colon
HCT-116 colon = tested on: HCT-116 colon
HCT-15 colon = tested on: HCT-15 colon
HL-60(TB) leukemia = tested on: HL-60(TB) leukemia
HOP-62 NSCLC = tested on: HOP-62 NSCLC
HOP-92 NSCLC = tested on: HOP-92 NSCLC
HS 578T breast = tested on: HS 578T breast
HT29 colon = tested on: HT29 colon
IGROV1 ovarian = tested on: IGROV1 ovarian
K-562 leukemia = tested on: K-562 leukemia
KM12 colon = tested on: KM12 colon
M14 melanoma = tested on: M14 melanoma
MALME-3M melanoma = tested on: MALME-3M melanoma
MCF7 breast = tested on: MCF7 breast
MDA-MB-231 breast = tested on: MDA-MB-231 breast
MDA-MB-435 = tested on: MDA-MB-435
MOLT-4 leukemia = tested on: MOLT-4 leukemia
NCI-H226 lung = tested on: NCI-H226 lung

Structure (SMILES): Cc1ccc(-c2nnc(SCc3ccc(O)c4ncccc34)o2)cc1
- GI50 (786-0 renal): 1610 nM
- TGI (786-0 renal): 6810 nM
- GI50 (A498 renal): 1080 nM
- TGI (A498 renal): 13600 nM
- GI50 (A549 NSCLC): 1950 nM
- TGI (A549 NSCLC): > 100000 nM
- GI50 (ACHN renal): 649 nM
- TGI (ACHN renal): 2320 nM
- GI50 (BT-549 breast): 1060 nM
- TGI (BT-549 breast): > 100000 nM
- GI50 (CAKI-1 renal): 1800 nM
- TGI (CAKI-1 renal): 7720 nM
- GI50 (CCRF-CEM leukemia): 518 nM
- TGI (CCRF-CEM leukemia): > 100000 nM
- GI50 (COLO 205 colon): 8410 nM
- TGI (COLO 205 colon): > 100000 nM
- GI50 (DU-145 prostate): 1460 nM
- TGI (DU-145 prostate): > 100000 nM
- GI50 (EKVX NSCLC): 1730 nM
- TGI (EKVX NSCLC): 9860 nM
- GI50 (HCC-2998 colon): 933 nM
- TGI (HCC-2998 colon): > 100000 nM
- GI50 (HCT-116 colon): 537 nM
- TGI (HCT-116 colon): > 100000 nM
- GI50 (HCT-15 colon): 492 nM
- TGI (HCT-15 colon): > 100000 nM
- GI50 (HL-60(TB) leukemia): 520 nM
- TGI (HL-60(TB) leukemia): 10200 nM
- GI50 (HOP-62 NSCLC): 1060 nM
- TGI (HOP-62 NSCLC): 3830 nM
- GI50 (HOP-92 NSCLC): 435 nM
- TGI (HOP-92 NSCLC): 4080 nM
- GI50 (HS 578T breast): 570 nM
- TGI (HS 578T breast): > 100000 nM
- GI50 (HT29 colon): 6430 nM
- TGI (HT29 colon): > 100000 nM
- GI50 (IGROV1 ovarian): 1550 nM
- TGI (IGROV1 ovarian): 9860 nM
- GI50 (K-562 leukemia): 1140 nM
- TGI (K-562 leukemia): 66300 nM
- GI50 (KM12 colon): 1910 nM
- TGI (KM12 colon): > 100000 nM
- GI50 (M14 melanoma): 816 nM
- TGI (M14 melanoma): 5490 nM
- GI50 (MALME-3M melanoma): 1960 nM
- TGI (MALME-3M melanoma): 8230 nM
- GI50 (MCF7 breast): 388 nM
- TGI (MCF7 breast): > 100000 nM
- GI50 (MDA-MB-231 breast): 2120 nM
- TGI (MDA-MB-231 breast): 27500 nM
- GI50 (MDA-MB-435): 500 nM
- TGI (MDA-MB-435): > 100000 nM
- GI50 (MOLT-4 leukemia): 877 nM
- TGI (MOLT-4 leukemia): > 100000 nM
- GI50 (NCI-H226 lung): 2420 nM
